Reference: PubChem BioAssay (NCI)
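Method: 48-hour compound exposure of cells in 96-well plates, five concentrations, linear interpolation of endpoints. GI50: concentration for 50% inhibition of growth. TGI denotes the concentration required for complete inhibition of growth.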

What was measured:
Experiment in all cases: NCI anticancer screen, dose series, 48 h
SK-MEL-5 melanoma = test system: SK-MEL-5 melanoma
DU-145 prostate = test system: DU-145 prostate
MOLT-4 leukemia = test system: MOLT-4 leukemia
K-562 leukemia = test system: K-562 leukemia
RPMI-8226 leukemia = test system: RPMI-8226 leukemia
BT-549 breast = test system: BT-549 breast
OVCAR-4 ovarian = test system: OVCAR-4 ovarian
OVCAR-8 ovarian = test system: OVCAR-8 ovarian
HCT-15 colon = test system: HCT-15 colon
M14 melanoma = test system: M14 melanoma
SF-295 CNS = test system: SF-295 CNS
UACC-62 melanoma = test system: UACC-62 melanoma
SK-OV-3 ovarian = test system: SK-OV-3 ovarian
KM12 colon = test system: KM12 colon
SNB-75 CNS = test system: SNB-75 CNS
OVCAR-3 ovarian = test system: OVCAR-3 ovarian
COLO 205 colon = test system: COLO 205 colon
SK-MEL-2 melanoma = test system: SK-MEL-2 melanoma

SMILES | TGI (SK-MEL-5 melanoma) | TGI (DU-145 prostate) | TGI (MOLT-4 leukemia) | TGI (K-562 leukemia) | TGI (RPMI-8226 leukemia) | TGI (BT-549 breast) | TGI (OVCAR-4 ovarian) | TGI (OVCAR-8 ovarian) | TGI (HCT-15 colon) | TGI (M14 melanoma) | TGI (SF-295 CNS) | TGI (UACC-62 melanoma) | TGI (SK-OV-3 ovarian) | TGI (KM12 colon) | TGI (SNB-75 CNS) | TGI (OVCAR-3 ovarian) | TGI (COLO 205 colon) | TGI (SK-MEL-2 melanoma) | GI50 (OVCAR-4 ovarian) | GI50 (OVCAR-8 ovarian)
CC[C@@H]1CC[C@@H]2[C@H](CC[C@]3(C)[C@@H](OS(=O)(=O)c4ccc(C)cc4)CC[C@@H]23)[C@H]1COS(=O)(=O)c1ccc(C)cc1 | > 100 µM | > 100 µM | > 100 µM | > 100 µM | > 100 µM | > 100 µM | > 100 µM | > 100 µM | > 100 µM | > 100 µM | > 100 µM | – | – | – | – | – | – | – | – | –
Cc1cn(C2CC(O)C(COC(=O)NCCC(F)(F)C(F)(F)C(F)(F)C(F)(F)F)O2)c(=O)[nH]c1=O (stereo unspecified) | > 100 µM | > 100 µM | > 100 µM | > 100 µM | – | > 100 µM | > 100 µM | > 100 µM | – | > 100 µM | > 100 µM | > 100 µM | > 100 µM | > 100 µM | > 100 µM | > 100 µM | > 100 µM | – | – | –
CCOC(=O)Cn1c(=O)c2nc(SC)sc2n(CC)c1=S | > 100 µM | > 100 µM | > 100 µM | > 100 µM | > 100 µM | – | > 100 µM | > 100 µM | > 100 µM | 17.4 µM | > 100 µM | – | > 100 µM | > 100 µM | 52.4 µM | > 100 µM | > 100 µM | > 100 µM | – | –
CCOP(=O)(OCC)C(C)(CC)N/C(=N/C(NC(C)=O)(C(F)(F)F)C(F)(F)F)NC1=NC(C(F)(F)F)(C(F)(F)F)N=C(C(F)(F)F)O1 (stereo unspecified) | 31.9 µM | > 100 µM | 45.3 µM | > 100 µM | 73.7 µM | – | 84.2 µM | > 100 µM | > 100 µM | 64.7 µM | 82.8 µM | > 100 µM | > 100 µM | > 100 µM | 27.2 µM | > 100 µM | 29.8 µM | 62.3 µM | – | –
COc1ccc(CC(=O)N2CCC3(C)CC(=O)CC=C23)cc1OC (stereo unspecified) | > 100 µM | > 100 µM | > 100 µM | > 100 µM | > 100 µM | > 100 µM | > 100 µM | > 100 µM | > 100 µM | > 100 µM | > 100 µM | > 100 µM | > 100 µM | > 100 µM | – | > 100 µM | > 100 µM | > 100 µM | – | –
N#Cc1c(-c2ccc([N+](=O)[O-])cc2)c(C#N)c(=O)n(NS(=O)(=O)c2ccccc2)c1-c1ccccc1 | > 100 µM | – | > 100 µM | > 100 µM | > 100 µM | > 100 µM | > 100 µM | > 100 µM | > 100 µM | > 100 µM | > 100 µM | > 100 µM | > 100 µM | > 100 µM | > 100 µM | – | > 100 µM | > 100 µM | – | –
O=C1CSC(c2ccc([N+](=O)[O-])cc2)N1c1ccc(-n2c(-c3ccccc3)nc3ccccc3c2=O)cc1 (stereo unspecified) | > 100 µM | > 100 µM | > 100 µM | > 100 µM | > 100 µM | > 100 µM | 95.7 µM | > 100 µM | > 100 µM | > 100 µM | > 100 µM | > 100 µM | > 100 µM | > 100 µM | – | > 100 µM | > 100 µM | > 100 µM | – | –
COc1cccc([C@H]2C/C(=N\NC(=O)C(=O)N[C@@H](C)c3ccccc3)c3ccccc3N2)c1 | 0.868 µM | 15.6 µM | – | 0.0554 µM | 0.0503 µM | – | > 100 µM | 1.05 µM | > 100 µM | > 100 µM | > 100 µM | 0.0962 µM | > 100 µM | 0.0762 µM | – | > 100 µM | 13.1 µM | > 100 µM | 45.3 µM | 0.0285 µM
Cc1cccc(N(C(=O)Nc2ccc(Cl)c(Cl)c2)C2=NCC(C)S2)c1 (stereo unspecified) | 45.8 µM | > 100 µM | > 100 µM | > 100 µM | > 100 µM | – | > 100 µM | > 100 µM | > 100 µM | > 100 µM | > 100 µM | – | > 100 µM | > 100 µM | > 100 µM | > 100 µM | > 100 µM | > 100 µM | – | –
Cc1ccc(N(C(=O)Nc2ccccc2)C2=NCC(C)S2)cc1C (stereo unspecified) | 30.7 µM | > 100 µM | > 10 µM | > 100 µM | 49 µM | – | > 100 µM | 91.2 µM | 44.5 µM | 28.4 µM | 85.3 µM | – | > 100 µM | 40.5 µM | 56.4 µM | 32 µM | 41.6 µM | 32.2 µM | – | –
CCOC(=O)c1c(N)sc2c1C(C)(C(=O)OCC)CC2 (stereo unspecified) | > 100 µM | – | > 100 µM | > 100 µM | > 100 µM | > 100 µM | – | > 100 µM | > 100 µM | > 100 µM | – | > 100 µM | – | > 100 µM | > 100 µM | – | > 100 µM | > 100 µM | – | –
CN(C)C(=S)/N=c1\ssc(=S)n1Cc1cccnc1 | 37.8 µM | > 64.3 µM | 98.5 µM | > 100 µM | > 100 µM | – | > 100 µM | > 100 µM | > 75 µM | 59.2 µM | 16.8 µM | > 67.7 µM | > 81.1 µM | 36.2 µM | 20.6 µM | 9.47 µM | 32.1 µM | > 35.8 µM | – | –
C=CCOC(=O)NC1C(OC(C)[C@@H](NC(=O)OCc2ccccc2)C(=O)OC(C)(C)C)OC(COC(C)=O)C(OC(C)=O)C1OC(C)=O (stereo partly specified) | > 100 µM | > 100 µM | > 100 µM | > 100 µM | > 100 µM | – | > 100 µM | > 100 µM | > 100 µM | > 100 µM | > 100 µM | > 100 µM | > 100 µM | > 100 µM | 9.46 µM | > 100 µM | > 100 µM | – | – | –
COc1cc(-c2cc(-c3ccccc3)nc(-c3c(OC)ccc4c(C)cc(=O)oc34)c2)cc(OC)c1OC | > 100 µM | > 100 µM | > 100 µM | > 100 µM | – | > 100 µM | > 100 µM | > 100 µM | > 100 µM | > 100 µM | > 100 µM | > 100 µM | > 100 µM | > 100 µM | > 100 µM | > 100 µM | > 100 µM | > 100 µM | – | –
